In patent US20260224555A1, “NEW PHENYLQUINOLONE COMPOUND HAVING ANTIBACTERIAL AND ANTI-CANCER FUNCTIONS AND PREPARATION THEREOF” (AlphaMol Science Ltd (Shanghai), priority 2022, published 2026):

How the values were obtained:
Assay in all cases: In vitro anticancer activity test (MTT cell proliferation)
Format in all cases: cell-based
[1] = system: pancreatic cancer cell PNAC-1
Method: (§1) The anticancer activity of the compounds was tested using an in vitro cancer cell tests. The specific test method is as follows:
(§2) 1. Cell recovery and culture method: the cryovial was taken out from the liquid nitrogen container firstly, soaked directly in 37° C. warm water, and shaked from time to time to let it thaw as soon as possible. Then, the cryovial was transferred to a clean bench, and the lid was open. The cell suspension was taken into a centrifuge tube using a rubber-tipped dropper and more than 10 times the culture medium was added, mixed well, and centrifuged at 50 g for 5 minutes. Then, the supernatant was discarded, complete culture medium containing 10% fetal bovine serum was added to resuspend the cells, the cells was counted, the cell density was adjusted, and then inoculated into a culture bottle. The culture bottle was placed in a cell culture incubator at 5% CO2 and 37° C. The complete culture medium was replaced once the next day and the culture was continued.
(§3) 2. Cell passaging method: adherent cells in the logarithmic growth phase were placed in a clean bench, the original culture medium was discarded, and washed three times with 1×PBS. An appropriate amount of 0.25% trypsin digestion solution was added to moisten the cells, and then the trypsin solution was aspirated. The cells were placed in a cell culture incubator at 5% CO2 and 37° C. for digestion for a suitable time, and observed under a microscope. When 90% of the cells become round, the cells were moved immediately to the clean bench and complete culture medium was added to terminate digestion. Then, the cells were dislodged by pipetting up and down with a rubber-tipped dropper to single cells. The cells were counted, and the cell density was adjusted. The cells were inoculated into a suitable culture bottle or dish, added enough complete culture medium, and placed in a cell culture incubator at 5% CO2 and 37° C. for static culture.
(§4) For suspension cells in the logarithmic phase, the original culture medium was directly centrifuged at 50 g for 5 minutes, the supernatant was discarded, and the cells were washed once with PBS and centrifuged. After discarding the supernatant, the complete culture medium was added and the cells were dispersed using a rubber-tipped dropper. The cells are counted, and the cell density was adjusted. The cells were inoculated into appropriate culture bottles or culture dishes, and sufficient complete culture medium was added, and the cells were cultured in a cell culture incubator at 5% CO2 and 37° C.
(§5) 3. Cell proliferation assay: cells in good state in logarithmic phase were taken and appropriate amount of the cells was inoculated into 96-well plates according to the cell passage treatment method, with each well containing 180 μL complete medium. After the cells growth was recovered and the number of cells in each well is 5000±500, a drug was added for treatment.
(§6) After drug treatment during the experimental time, MTT solution with a final concentration of 0.5 mg/mL was added to each well, and placed in a cell culture incubator at 5% CO2 and 37° C. to allow a fully reaction of MTT with cells. After 4 hours, the solution in the 96-well plate was discarded, 100 µL of DMSO was added, and shaked to dissolve the formazan precipitated at the bottom of the plate, and the absorbance value of samples was detected at a wavelength of 570 nm using a microplate reader. Calculation method of cell viability rate: […]

[2] = system: human liver cancer cell BLE-7402
Method: as §1, §2, §3, §4, §5, §6

[3] = system: human prostate cancer cell PC-3
Method: as §1, §2, §3, §4, §5, §6

[4] = system: human liver cancer cell HepG2
Method: as §1, §2, §3, §4, §5, §6

[5] = system: human renal cancer cell OS-RC-2
Method: as §1, §2, §3, §4, §5, §6

[6] = system: human breast cancer cell MFM223; settings: MFM-223
Method: as §1, §2, §3, §4, §5, §6

[7] = system: human gastric cancer cell MGC-803
Method: as §1, §2, §3, §4, §5, §6

[8] = system: human colon cancer cell HCT 116
Method: as §1, §2, §3, §4, §5, §6

human glioma cell SNB-19 = system: human glioma cell SNB-19
Method: as §1, §2, §3, §4, §5, §6

[9] = system: human acute myeloid leukemia cell MOLM-13
Method: as §1, §2, §3, §4, §5, §6

[10] = system: human malignant melanoma cell A375; settings: A-375
Method: as §1, §2, §3, §4, §5, §6

[11] = system: human acute monocytic leukemia cell THP-1
Method: as §1, §2, §3, §4, §5, §6

[12] = system: human osteosarcoma cell U2-OS; settings: U2OS
Method: as §1, §2, §3, §4, §5, §6

Measured: IC50

O=C(CCl)Nc1ncc(-c2cc3c(cc2F)c(=O)c(C(=O)O)cn3C2CC2)cc1F [Example 135]
1 to 10 µM: all assays above
